One experiment relates to MMP-2 and MMP-9. Kind of experiment: Gelatin zymography of HT1080 conditioned medium. Type of experiment: biochemical, human. As to conditions: 1–100 μM in HT1080 conditioned medium. How it is done: The culture medium of human fibrosarcoma HT1080 cells (DMEM) was removed and concentrated 20-fold in a Vivaspin 6 ml concentrator. It was incubated for 30 min at ambient temperature in nonreducing sample buffer and run under Laemmli conditions ([Laemmli, 1970]) by loading a volume of 25 μl onto 7.5% polyacrylamide gels containing 0.1% sodium dodecyl sulphate (SDS), 2 mg ml^−1 casein and 0.16 μM human plasminogen. Following electrophoresis, gels were incubated for 1 h in 2.5% (v v^−1) Triton X-100 for removal of SDS and then for 1 h at 37°C in 50 mM Tris-HCl, 0.1 M NaCl, pH 7.6. Plasminogen activator (PA) activity was visualised as clear bands of lysis upon staining with 0.1% Coomassie blue R250. Purified human high-molecular-weight two-chain urokinase plasminogen activator (HMW-uPA) and low-molecular-weight urokinase plasminogen activator (LMW-uPA) were run in each gel as positive controls. An analogous protocol was followed to detect enzymatic activities towards MMP-2 and MMP-9 except that the 7% SDS–PAGE contained 1 mg ml^−1 bovine gelatin. The gels were incubated at 37°C for about 18 h in 5 mM Tris, pH 7.6 containing 0.2 M NaCl, 5 mM CaCl2 and 0.02 (w v^−1) Brij35. Protein staining was performed during 1 h with a 0.25% solution of Coomassie brillant blue R250 in 50% methanol and 7% acetic acid and destaining in a solution of 20% methanol and […]. […]

The target of the next experiment is T1, HLE (Homo sapiens, UniProt P08246).
T1 construct: purchased Elastase Products Co
T1 sequence (P08246 30-267): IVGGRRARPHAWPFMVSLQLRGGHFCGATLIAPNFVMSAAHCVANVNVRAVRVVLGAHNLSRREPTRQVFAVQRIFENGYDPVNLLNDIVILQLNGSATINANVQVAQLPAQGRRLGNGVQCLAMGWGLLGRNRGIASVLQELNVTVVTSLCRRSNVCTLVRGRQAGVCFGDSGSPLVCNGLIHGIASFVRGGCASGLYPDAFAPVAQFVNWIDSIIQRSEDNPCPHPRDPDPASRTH
Kind of experiment: Inactivation of human leucocyte elastase (progress curve method). In kind it is biochemical. The note with it: pH 8.0, 25°C, read-out: ki/KI or kobs/[I], HLE. How it is done:
Bovine α-CT and LMW-uPA (MW=33 000 Da) were purchased from Sigma, HMW-uPA (MW=54 000 Da) from Choay, trypsin (TRY) and THR from Boehringer-Indelheim (Germany), and MMP-2 and MMP-9 from Calbiochem. Human leucocyte elastase and PM were from Elastase Products Co. and Biogenic, respectively. Except for THR, HMW-uPA, MMP-2 and MMP-9, enzyme concentrations were determined by active-site titrations using the appropriate titrant ([Bender et al, 1966]; [Chase and Shaw, 1970]; [Powers and Gupton, 1977]). […]
The kinetic parameters for the inhibition were determined either by the preincubation method for LMW-uPA and PM (small aliquots of the reaction mixture were withdrawn at intervals of time and the remaining activity determined), or by the progress curve method (HLE) when the inhibition was too fast to be measured accurately using the preincubation method. […]
At low inhibitor concentrations, the ratio ki/KI was obtained as kobs/[I]0. […] In the progress curve method, the substrate competes with the inhibitor and the kinetic parameters are determined as previously described ([Doucet et al, 1999]). […]

Consider `CC(=O)OCc1ccc2oc(=O)c(C(=O)Oc3cccc(Cl)c3)cc2c1` [compound 4, 3-chlorophenyl 6-acetoxymethyl-2-oxo-2H-1-benzopyran-3-carboxylate], for which the “effect on gelatinolytic activities of conditioned culture medium (gelatin zymography)” value in the experiment on MMP-2 and MMP-9 is given as “did not abrogate”.

Consider `CC(=O)OCc1ccc2oc(=O)c(C(=O)Oc3cccc(Br)c3)cc2c1` [compound 7, 3-bromophenyl 6-acetoxy-methyl-2-oxo-2H-1-benzopyran-3-carboxylate], for which the “effect on gelatinolytic activities of conditioned culture medium (gelatin zymography)” value with MMP-2 and MMP-9 is listed as “did not abrogate”. In addition, at HLE, the kinact/KI was 2190 M⁻¹ s⁻¹.

These data come from article PMC2376372, “3-Bromophenyl 6-acetoxymethyl-2-oxo-2H-1-benzopyran-3-carboxylate inhibits cancer cell invasion in vitro and tumour growth in vivo” (British Journal of Cancer, 2003).
